Results taken from patent EP3046573B1, “AMYLIN ANALOGUES” (Zealand Pharma A/S, priority 2013, dated 2015).
pEC50: −log10 of the molar value. Numbered stars: 1 amine (or outer) side, 2 acyl side, 3 side chain; on linkers, the order of the positions; unused ones are H or OH. Bridge positions count the residues as written; N and C are the ends. Square brackets hold non-standard residues; d marks the D form. Peptide text beside a SMILES is read from it. * marks the point of attachment. C20 diacid = O=C(O)CCCCCCCCCCCCCCCCCCC(=O)*; γGlu = O=C(O)[C@H](CCC(=O)[*:2])N[*:1]; NMeI = CC[C@H](C)[C@H](NC)C(=O)O; Sar = CNCC(=O)O

Tests used:
[1] = Solubility assessment (turbidity absorbance at 325 nm); type: physicochemical; details: stock 2 mg/ml diluted 1:1, ambient temperature (typically 25°C), n=1; for Solubility, Acetate buffer pH 4: 100 mM acetate buffer pH 4.0; for Solubility, Acetate buffer pH 5: 100 mM acetate buffer pH 5.0; for Solubility, Histidine buffer pH 6: 100 mM histidine buffer pH 6.0; for Solubility, Histidine buffer pH 7: 100 mM histidine buffer pH 7.0; for Solubility, Phosphate buffer pH 6: 100 mM phosphate buffer pH 6.0; for Solubility, Phosphate buffer pH 7: 100 mM phosphate buffer pH 7.0; for Solubility, Phosphate buffer pH 7.5: 100 mM phosphate buffer pH7.5
Procedure, shortened: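 Peptide stock (2 mg/ml, water pH 2.5) diluted 1:1 into 100 mM acetate (pH 4.0, 5.0), histidine (pH 6.0, 7.0) or phosphate (pH 6.0–7.5) buffer; absorbance at 325 nm read at about 25°C, n=1. A325 ≤ 0.02 taken as solubility ≥ 1 mg/ml.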

[2] = molecular target: T1, human amylin receptor 3 (hAMYR3) consisting of hCTR2 co-expressed with human Receptor Activity Modifying Protein 3 (hRAMP3) (Homo sapiens, UniProt O60896+P30988); assay: hAMYR3 assay: induction of cAMP (AlphaScreen cAMP Assay kit) in COS7 cells expressing hAMYR3; type: cell-based; details: cAMP induction in COS7 cells expressing hAMYR3; average of a minimum of 3 determinations; read-out: hAMY R3 EC50
T1 construct: expressed in transfected cells
T1 sequence (P30988 25-474): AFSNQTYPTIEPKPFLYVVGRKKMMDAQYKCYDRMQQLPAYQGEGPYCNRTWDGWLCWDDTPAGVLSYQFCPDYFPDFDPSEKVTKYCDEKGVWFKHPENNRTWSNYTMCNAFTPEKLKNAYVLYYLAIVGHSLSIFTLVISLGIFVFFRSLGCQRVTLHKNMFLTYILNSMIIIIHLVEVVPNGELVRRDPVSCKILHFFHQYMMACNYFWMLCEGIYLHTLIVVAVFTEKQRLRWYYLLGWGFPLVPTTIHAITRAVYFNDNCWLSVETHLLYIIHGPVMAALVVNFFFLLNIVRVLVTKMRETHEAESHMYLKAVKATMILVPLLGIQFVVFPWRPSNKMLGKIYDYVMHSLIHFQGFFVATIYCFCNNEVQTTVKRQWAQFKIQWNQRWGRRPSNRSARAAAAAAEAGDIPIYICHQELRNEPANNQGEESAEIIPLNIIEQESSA
T1 sequence (O60896 24-148 partner): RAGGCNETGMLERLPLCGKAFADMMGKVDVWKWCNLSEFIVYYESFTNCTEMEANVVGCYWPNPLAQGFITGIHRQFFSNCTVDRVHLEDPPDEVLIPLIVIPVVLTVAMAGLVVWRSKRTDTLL
Procedure, shortened: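 Stable COS7 clone co-expressing hCTR2 and hRAMP3, stimulated 15 min at 37° C with increasing peptide in Tyrode buffer pH 7.4 with 100 µM IBMX and 0.1% casein. cAMP measured by AlphaScreen after lysis; EC50 and % efficacy versus pramlintide from 4PL fit.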

[3] = molecular target: T2, human calcitonin receptor (hCTR2) (Homo sapiens, UniProt P30988); assay: hCTR2 assay: induction of cAMP (AlphaScreen cAMP Assay kit) in COS7 cells expressing hCTR2; type: cell-based; details: cAMP induction in COS7 cells expressing hCTR2; average of a minimum of 3 determinations; read-out: hCTR2 EC50
T2 construct: expressed in transfected cells
T2 sequence (P30988 25-474): T1 sequence (P30988 25-474)
Procedure, shortened: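 COS7 stable hCTR2 clone (RAMP-free); peptide dose-response 15 min 37° C in Tyrode pH 7.4 + 100 µM IBMX + 0.1% casein; lysis 10 min RT; AlphaScreen cAMP; 4PL fit.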

| SMILES | Solubility, Acetate buffer pH 4 [1] | Solubility, Acetate buffer pH 5 [1] | Solubility, Histidine buffer pH 6 [1] | Solubility, Histidine buffer pH 7 [1] | Solubility, Phosphate buffer pH 6 [1] | Solubility, Phosphate buffer pH 7 [1] | Solubility, Phosphate buffer pH 7.5 [1] | pEC50 [2] | pEC50 [3] |
| --- | --- | --- | --- | --- | --- | --- | --- | --- | --- |
| CC[C@H](C)[C@@H](C(=O)N[C@@H](CC(C)C)C(=O)N[C@@H](CO)C(=O)N[C@@H](CO)C(=O)N[C@H](C(=O)N[C@@H](CCC(=O)O)C(=O)N[C@H](C(=O)NCC(=O)N[C@@H](CO)C(=O)N[C@@H](CCC(=O)O)C(=O)N[C@H](C(=O)N1CCC[C@H]1C(N)=O)[C@@H](C)O)C(C)C)[C@@H](C)O)N(C)C(=O)[C@H](C)NC(=O)CN(C)C(=O)[C@H](Cc1ccccc1)NC(=O)[C@H](CO)NC(=O)[C@H](CO)NC(=O)[C@H](CO)NC(=O)[C@H](CO)NC(=O)[C@H](CCCNC(=N)N)NC(=O)[C@H](Cc1c[nH]cn1)NC(=O)[C@H](CC(C)C)NC(=O)[C@H](Cc1ccccc1)NC(=O)[C@H](CCC(=O)O)NC(=O)[C@H](C)NC(=O)[C@H](CC(C)C)NC(=O)[C@H](CCCNC(=N)N)NC(=O)[C@H](CC(C)C)NC(=O)[C@@H](NC(=O)[C@H](C)NC(=O)[C@@H]1CSSC[C@H](NC(=O)[C@H](CCCNC(=N)N)NC(=O)CC[C@H](NC(=O)CCCCCCCCCCCCCCCCCCC(=O)O)C(=O)O)C(=O)N[C@@H](CC(N)=O)C(=O)N[C@@H]([C@@H](C)O)C(=O)N[C@@H](C)C(=O)N[C@@H]([C@@H](C)O)C(=O)N1)[C@@H](C)O [Compound 121, [19CD]-isoGlu-RC()NTATC()ATLRLAEFLHRSSSSF-Gly(Me)-A-Ile(Me)-LSSTEVGSETP-NH2] ({C20 diacid-γGlu}-RCNTATCATLRLAEFLHRSSSSF[Sar]A[NMeI]LSSTEVGSETP-NH2; disulfide 2-7) | SS (SS indicates solubility ≥ 1mg/ml) | SS (SS indicates solubility ≥ 1mg/ml) | II (II indicates solubility ≤ 1 mg/ml) | SS (SS indicates solubility ≥ 1mg/ml) | SS (SS indicates solubility ≥ 1mg/ml) | II (II indicates solubility ≤ 1 mg/ml) | SS (SS indicates solubility ≥ 1mg/ml) | 9.52 | 9.82 |
| CC[C@H](C)[C@@H](C(=O)N[C@@H](CC(C)C)C(=O)N[C@@H](CO)C(=O)N[C@@H](CO)C(=O)N[C@H](C(=O)N[C@@H](CCC(=O)O)C(=O)N[C@H](C(=O)NCC(=O)N[C@@H](CO)C(=O)N[C@@H](CCC(=O)O)C(=O)N[C@H](C(=O)N1CCC[C@H]1C(N)=O)[C@@H](C)O)C(C)C)[C@@H](C)O)N(C)C(=O)[C@H](C)NC(=O)CN(C)C(=O)[C@H](Cc1ccccc1)NC(=O)[C@H](CO)NC(=O)[C@H](CO)NC(=O)[C@H](CO)NC(=O)[C@H](CO)NC(=O)[C@H](CCCNC(=N)N)NC(=O)[C@H](Cc1c[nH]cn1)NC(=O)[C@H](CC(C)C)NC(=O)[C@H](Cc1ccccc1)NC(=O)[C@H](CCC(=O)O)NC(=O)[C@H](C)NC(=O)[C@H](CC(C)C)NC(=O)[C@H](CCCNC(=N)N)NC(=O)CNC(=O)[C@@H](NC(=O)[C@H](C)NC(=O)[C@@H]1CSSC[C@H](NC(=O)[C@H](CCCNC(=N)N)NC(=O)CC[C@H](NC(=O)CCCCCCCCCCCCCCCCCCC(=O)O)C(=O)O)C(=O)N[C@@H](CC(N)=O)C(=O)N[C@@H]([C@@H](C)O)C(=O)N[C@@H](C)C(=O)N[C@@H]([C@@H](C)O)C(=O)N1)[C@@H](C)O [Compound 122, [19CD]-isoGlu-RC()NTATC()ATGRLAEFLHRSSSSF-Gly(Me)-A-Ile(Me)-LSSTEVGSETP-NH2] ({C20 diacid-γGlu}-RCNTATCATGRLAEFLHRSSSSF[Sar]A[NMeI]LSSTEVGSETP-NH2; disulfide 2-7) | SS (SS indicates solubility ≥ 1mg/ml) | SS (SS indicates solubility ≥ 1mg/ml) | SS (SS indicates solubility ≥ 1mg/ml) | SS (SS indicates solubility ≥ 1mg/ml) | SS (SS indicates solubility ≥ 1mg/ml) | SS (SS indicates solubility ≥ 1mg/ml) | SS (SS indicates solubility ≥ 1mg/ml) | 9.70 | 9.96 |
| CC[C@H](C)[C@@H](C(=O)N[C@@H](CC(C)C)C(=O)N[C@@H](CO)C(=O)N[C@@H](CO)C(=O)N[C@H](C(=O)N[C@@H](CCC(=O)O)C(=O)N[C@H](C(=O)NCC(=O)N[C@@H](CO)C(=O)N[C@@H](CCC(=O)O)C(=O)N[C@H](C(=O)N1CCC[C@H]1C(N)=O)[C@@H](C)O)C(C)C)[C@@H](C)O)N(C)C(=O)[C@H](C)NC(=O)CN(C)C(=O)[C@H](Cc1ccccc1)NC(=O)[C@H](CO)NC(=O)[C@H](CO)NC(=O)[C@H](CO)NC(=O)[C@H](CO)NC(=O)[C@H](CCCNC(=N)N)NC(=O)[C@H](Cc1c[nH]cn1)NC(=O)[C@H](CC(C)C)NC(=O)[C@H](Cc1ccccc1)NC(=O)[C@H](CCC(=O)O)NC(=O)[C@H](C)NC(=O)[C@H](CC(C)C)NC(=O)[C@H](CCCNC(=N)N)NC(=O)[C@@H](NC(=O)[C@@H](NC(=O)[C@H](C)NC(=O)[C@@H]1CSSC[C@H](NC(=O)[C@H](CCCNC(=N)N)NC(=O)CC[C@H](NC(=O)CCCCCCCCCCCCCCCCCCC(=O)O)C(=O)O)C(=O)N[C@@H](CC(N)=O)C(=O)N[C@@H]([C@@H](C)O)C(=O)N[C@@H](C)C(=O)N[C@@H]([C@@H](C)O)C(=O)N1)[C@@H](C)O)[C@@H](C)O [Compound 123, [19CD]-isoGlu-RC()NTATC()ATTRLAEFLHRSSSSF-Gly(Me)-A-Ile(Me)-LSSTEVGSETP-NH2] ({C20 diacid-γGlu}-RCNTATCATTRLAEFLHRSSSSF[Sar]A[NMeI]LSSTEVGSETP-NH2; disulfide 2-7) | SS (SS indicates solubility ≥ 1mg/ml) | SS (SS indicates solubility ≥ 1mg/ml) | SS (SS indicates solubility ≥ 1mg/ml) | SS (SS indicates solubility ≥ 1mg/ml) | SS (SS indicates solubility ≥ 1mg/ml) | SS (SS indicates solubility ≥ 1mg/ml) | SS (SS indicates solubility ≥ 1mg/ml) | 9.54 | 9.55 |
